# According to patent US20110040086A1, “Novel Beta-Lactam Antibiotics, Methods for Their Production, and Their Use” (DRITTE PATENTPORTFOLIO BETEILIGUNGSGESELLSCHAFT MB, priority 2007, published 2011):
# Tests used:
# [1] = tested on: Bacillus megaterium SBUG 1152; experiment: agar diffusion test (Test System 1, antimicrobial effect); format: cell-based
# Outline: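 B. megaterium SBUG 1152 grown overnight (17 h, 37° C., 180 rpm) and seeded at 10^6 cells per 10 ml nutrient agar. Compound at 10, 50 and 100 μg, dissolved in methanol or water, applied to paper discs. Inhibition-zone diameter (mm) read after 20 h at 37° C.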
# [2] = tested on: Staphylococcus aureus 315; experiment: agar diffusion test (Test System II, multi-resistant germs); format: cell-based; parameters: key: r = resistant (no detectable zone of inhibition)
# Outline: (§1)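 Read-out is the diameter of the growth-free zone around each disc after plates incubate 18-20 hours at 37 °C. Discs hold 10, 50 or 100 μg of substance applied from methanol or aqueous solution, on agar seeded with bacteria adjusted to McFarland 0.5.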
# S. epidermidis 125 = experiment: as above; format: cell-based, Staphylococcus epidermidis
# Outline: as §1
# S. epidermidis 1068 = experiment: as above; format: cell-based, Staphylococcus epidermidis; parameters: key: r = resistant (no detectable zone of inhibition)
# Outline: as §1
# S. epidermidis 1071 = experiment: as above; format: cell-based, Staphylococcus epidermidis; parameters: key: r = resistant (no detectable zone of inhibition)
# Outline: as §1
# S. epidermidis 847 = experiment: as above; format: cell-based, Staphylococcus epidermidis; parameters: key: r = resistant (no detectable zone of inhibition)
# Outline: as §1
# S. epidermidis 563 = experiment: as above; format: cell-based, Staphylococcus epidermidis; parameters: key: r = resistant (no detectable zone of inhibition)
# Outline: as §1
compound,measurement,setting,value
"7-{2-2-(2-hydroxyethylcarbamoyl)-3,6-dioxyocyclohexa-1,4-dienylamino]-2-(4-hydroxyphenyl)-acetylamino}-desacetoxycephalosporanic acid [1a]",Diameter of zone of inhibition,[1]; Quantity n 0.019,22 mm
same,Diameter of zone of inhibition,[1]; Quantity n 0.1,30 mm
same,Diameter of zone of inhibition,[1]; Quantity n 0.19,32 mm
same,Diameter of zone of inhibition,[2]; Quantity n 0.019,r
same,Diameter of zone of inhibition,[2]; Quantity n 0.1,10 mm
same,Diameter of zone of inhibition,[2]; Quantity n 0.19,16 mm
same,Diameter of zone of inhibition,S. epidermidis 125; Quantity n 0.019,14 mm
same,Diameter of zone of inhibition,S. epidermidis 125; Quantity n 0.1,24 mm
same,Diameter of zone of inhibition,S. epidermidis 125; Quantity n 0.19,28 mm
same,Diameter of zone of inhibition,S. epidermidis 1068; Quantity n 0.019,r
same,Diameter of zone of inhibition,S. epidermidis 1068; Quantity n 0.1,10 mm
same,Diameter of zone of inhibition,S. epidermidis 1068; Quantity n 0.19,16 mm
same,Diameter of zone of inhibition,S. epidermidis 1071; Quantity n 0.019,r
same,Diameter of zone of inhibition,S. epidermidis 1071; Quantity n 0.1,18 mm
same,Diameter of zone of inhibition,S. epidermidis 1071; Quantity n 0.19,20 mm
same,Diameter of zone of inhibition,S. epidermidis 847; Quantity n [mol] 0.019,r
same,Diameter of zone of inhibition,S. epidermidis 847; Quantity n [mol] 0.1,16 mm
same,Diameter of zone of inhibition,S. epidermidis 847; Quantity n [mol] 0.19,20 mm
same,Diameter of zone of inhibition,S. epidermidis 563; Quantity n 0.019,r
same,Diameter of zone of inhibition,S. epidermidis 563; Quantity n 0.1,10 mm
same,Diameter of zone of inhibition,S. epidermidis 563; Quantity n 0.19,16 mm
"7-[2-(2-ethoxycarbonyl-3,6-dioxocyclohexa-1,4-dienylamino)-2-(4-hydroxyphenyl)-acetylamino]-desacetoxycephalosporanic acid [1d]",Diameter of zone of inhibition,[1]; Quantity n 0.029,18 mm
same,Diameter of zone of inhibition,[1]; Quantity n 0.14,30 mm
same,Diameter of zone of inhibition,[1]; Quantity n 0.29,34 mm
same,Diameter of zone of inhibition,[2]; Quantity n 0.029,r
same,Diameter of zone of inhibition,[2]; Quantity n 0.14,r
same,Diameter of zone of inhibition,[2]; Quantity n 0.29,8 mm
same,Diameter of zone of inhibition,S. epidermidis 125; Quantity n 0.029,10 mm
same,Diameter of zone of inhibition,S. epidermidis 125; Quantity n 0.14,20 mm
same,Diameter of zone of inhibition,S. epidermidis 125; Quantity n 0.29,24 mm
same,Diameter of zone of inhibition,S. epidermidis 1068; Quantity n 0.029,r
same,Diameter of zone of inhibition,S. epidermidis 1068; Quantity n 0.14,12 mm
same,Diameter of zone of inhibition,S. epidermidis 1068; Quantity n 0.29,14 mm
same,Diameter of zone of inhibition,S. epidermidis 1071; Quantity n 0.029,r
same,Diameter of zone of inhibition,S. epidermidis 1071; Quantity n 0.14,14 mm
same,Diameter of zone of inhibition,S. epidermidis 1071; Quantity n 0.29,18 mm
same,Diameter of zone of inhibition,S. epidermidis 847; Quantity n [mol] 0.029,r
same,Diameter of zone of inhibition,S. epidermidis 847; Quantity n [mol] 0.14,10 mm
same,Diameter of zone of inhibition,S. epidermidis 847; Quantity n [mol] 0.29,14 mm
same,Diameter of zone of inhibition,S. epidermidis 563; Quantity n 0.029,r
same,Diameter of zone of inhibition,S. epidermidis 563; Quantity n 0.14,12 mm
same,Diameter of zone of inhibition,S. epidermidis 563; Quantity n 0.29,18 mm
"NC(=O)C1=C(NC(C(=O)NC2C(=O)N3C(C(=O)O)=C(Cl)CSC23)c2ccccc2)C(=O)C=CC1=O (stereo not drawn) [1j, 3-chlorine-7-[2-(2-carbamoyl-3,6-dioxocyclohexa-1,4-dienylamino)-2-phenyl-acetylamino]-8-oxo-1-thia-5-azabicyclo[4.2.0]oct-3-en-4-carboxylic acid]",Diameter of zone of inhibition,[1]; Quantity n 0.02,28 mm
same,Diameter of zone of inhibition,[1]; Quantity n 0.1,36 mm
same,Diameter of zone of inhibition,[1]; Quantity n 0.2,40 mm
same,Diameter of zone of inhibition,[2]; Quantity n 0.02,r
same,Diameter of zone of inhibition,[2]; Quantity n 0.1,8 mm
same,Diameter of zone of inhibition,[2]; Quantity n 0.2,12 mm
same,Diameter of zone of inhibition,S. epidermidis 125; Quantity n 0.02,22 mm
same,Diameter of zone of inhibition,S. epidermidis 125; Quantity n 0.1,30 mm
same,Diameter of zone of inhibition,S. epidermidis 125; Quantity n 0.2,32 mm
same,Diameter of zone of inhibition,S. epidermidis 1068; Quantity n 0.02,16 mm
same,Diameter of zone of inhibition,S. epidermidis 1068; Quantity n 0.1,22 mm
same,Diameter of zone of inhibition,S. epidermidis 1068; Quantity n 0.2,26 mm
same,Diameter of zone of inhibition,S. epidermidis 1071; Quantity n 0.02,18 mm
same,Diameter of zone of inhibition,S. epidermidis 1071; Quantity n 0.1,26 mm
same,Diameter of zone of inhibition,S. epidermidis 1071; Quantity n 0.2,28 mm
same,Diameter of zone of inhibition,S. epidermidis 847; Quantity n [mol] 0.02,10 mm
same,Diameter of zone of inhibition,S. epidermidis 847; Quantity n [mol] 0.1,20 mm
same,Diameter of zone of inhibition,S. epidermidis 847; Quantity n [mol] 0.2,24 mm
same,Diameter of zone of inhibition,S. epidermidis 563; Quantity n 0.02,20 mm
same,Diameter of zone of inhibition,S. epidermidis 563; Quantity n 0.1,26 mm
same,Diameter of zone of inhibition,S. epidermidis 563; Quantity n 0.2,32 mm
"CC1=C(C(=O)O)N2C(=O)C(NC(=O)C(NC3=C(C(N)=O)C(=O)C=CC3=O)c3ccccc3)C2SC1 (stereo not drawn) [1f, 7-[2-(2-carbamoyl-3,6-dioxocyclohexa-1,4-dienylamino)-2-phenyl-acetylamino]-desacetoxycephalosporanic acid]",Diameter of zone of inhibition,[1]; Quantity n 0.02,20 mm
same,Diameter of zone of inhibition,[1]; Quantity n 0.1,30 mm
same,Diameter of zone of inhibition,[1]; Quantity n 0.2,32 mm
same,Diameter of zone of inhibition,[2]; Quantity n 0.02,r
same,Diameter of zone of inhibition,[2]; Quantity n 0.1,r
same,Diameter of zone of inhibition,[2]; Quantity n 0.2,10 mm
same,Diameter of zone of inhibition,S. epidermidis 125; Quantity n 0.02,10 mm
same,Diameter of zone of inhibition,S. epidermidis 125; Quantity n 0.1,22 mm
same,Diameter of zone of inhibition,S. epidermidis 125; Quantity n 0.2,28 mm
same,Diameter of zone of inhibition,S. epidermidis 1068; Quantity n 0.02,r
same,Diameter of zone of inhibition,S. epidermidis 1068; Quantity n 0.1,12 mm
same,Diameter of zone of inhibition,S. epidermidis 1068; Quantity n 0.2,16 mm
same,Diameter of zone of inhibition,S. epidermidis 1071; Quantity n 0.02,8 mm
same,Diameter of zone of inhibition,S. epidermidis 1071; Quantity n 0.1,16 mm
same,Diameter of zone of inhibition,S. epidermidis 1071; Quantity n 0.2,18 mm
same,Diameter of zone of inhibition,S. epidermidis 847; Quantity n [mol] 0.02,r
same,Diameter of zone of inhibition,S. epidermidis 847; Quantity n [mol] 0.1,16 mm
same,Diameter of zone of inhibition,S. epidermidis 847; Quantity n [mol] 0.2,20 mm
same,Diameter of zone of inhibition,S. epidermidis 563; Quantity n 0.02,r
same,Diameter of zone of inhibition,S. epidermidis 563; Quantity n 0.1,18 mm
same,Diameter of zone of inhibition,S. epidermidis 563; Quantity n 0.2,24 mm
